Tests used:
[1] = system: HeLa (cervical cancer cells); assay: MTT assay for anticancer activity (in vitro cytotoxicity), HeLa; assay type: cell-based, human; settings: for IC50: MTT, incubated 24 h with compound, read-out: IC50 ± SEM, HeLa (concentration causing 50% reduction in cell viability)
Protocol: (§1) Cell Cultures: Human Cervical cancer HeLa and Brest cancer cell lines MCF-7 were grown in Dulbecco's modified Eagle's medium (DMEM) supplemented with 10% Fetal Bovine Serum (FBS), and 1% penicillin (10,000 units), streptomycin (10 mg), in 74 cm2 flask and incubated until 80% confluences obtained in humidified environment of, 5% CO2, 95% air, 37° C.
(§2) Complexes 1-7 and cisplatin (positive control) at 0.195 μM, 0.39 μM, 0.781 μM, 1.56 μM, 3.125 μM, 6.25 μM, 12.5 μM, 25 μM, and 50 μM concentrations were prepared in DMEM. Cancer cells were seeded and maintained in quadruplicate in a 96-well tissue culture plate at 5×10^4 cells per well in 200 μl of same medium. The cancer cells were incubated 24 hours before the treatment. All compounds were dissolved in 50% DMSO. Therefore, DMSO was used as a negative control. The final DMSO concentration, in each well, was less than 0.1%. The cancer cells were treated with the synthesized compounds 1-8 along with the cisplatin and the resultant cultures were incubated for 24 h. The medium of wells was discarded and 100 μL DMEM containing MTT (3-(4,5-dimethylthiazol-2-yl)-2,5-diphenyltetrazolium bromide) (5 mg/mL) was added to the wells and incubated in a CO2 incubator at 37° C. in the dark for 4 hrs. After incubation, a purple colored formazan (artificial chromogenic dye, a product of the reduction of water insoluble tetrazolium salts e.g., MTT by dehydrogenases and reductases) in the cells is produced and appeared as dark crystals in the bottom of the wells. The medium of culture was discarded from each well carefully to avoid disruption of the monolayer. 100 μL of isopropanol was added in each well. The solution was thoroughly mixed in the wells to dissolve the formazan crystals which ultimately results into a purple solution. The absorbance of the 96-well plate was measured at 570 nm with Mithras2LB943 against reagent blank. All data presented are mean±standard deviation.
(§3) To examine the possible anticancer effect of cisplatin and the prepared complexes, two human tumor cell lines, HeLa (cervical cancer cells) and MCF7 (breast cancer cells) were used. The results of in vitro cytotoxic activity are expressed as IC50 (concentration causing 50% reduction in cell viability) and are presented in Table 5.

[2] = system: MCF7 (breast cancer cells); assay: MTT assay for anticancer activity (in vitro cytotoxicity), MCF7; assay type: cell-based, human; settings: for IC50: MTT, incubated 24 h with compound, read-out: IC50 ± SEM, MCF7 (concentration causing 50% reduction in cell viability)
Protocol: as §1, §2, §3

SMILES | IC50 [1] [µM] | IC50 [2] [µM] | activity against MCF7 cells, compared among the complexes and with cisplatin ([2]; in words) | antiproliferative potency in HeLa cells, compared among the complexes and with cisplatin ([1]; in words)
NC(N)=[Se][Pt]([Cl])([Cl])[Se]=C(N)N [(1), Pt(SeU)2Cl2] | 19.78 ± 0.13 | 11.11 ± 0.05 |  | 
[Cl][Pt]([Cl])(=[Se]=C1NCCN1)=[Se]=C1NCCN1 [(2), Pt(ImSe)2Cl2] |  |  | most active | 
CCN1CCNC1=[Se][Pt]([Cl])([Cl])[Se]=C1NCCN1CC [(3), Pt(EtImSe)2Cl2] | 17.73 ± 0.14 | 8.59 ± 0.07 |  | 
CCCN1CCNC1=[Se][Pt]([Cl])([Cl])[Se]=C1NCCN1CCC [(4), Pt(PrImSe)2Cl2] | 12.9 ± 0.16 | 18.64 ± 0.03 |  | 
CC(C)N1CCNC1=[Se][Pt]([Cl])([Cl])[Se]=C1NCCN1C(C)C [(5), Pt(i-PrImSe)2Cl2] | 14 ± 0.16 | 8.3 ± 0.06 |  | 
[Cl][Pt]([Cl])([Se]=C1NCCCN1)[Se]=C1NCCCN1 [(6), Pt(DiazSe)2Cl2] | 11.3 ± 0.2 | 12.27 ± 0.01 |  | strongest antiproliferative potency
[Cl][Pt]([Cl])([Se]=C1NCCCCN1)[Se]=C1NCCCCN1 [(7), Pt(DiapSe)2Cl2] | 11.5 ± 0.22 | 16.68 ± 0.02 |  | 
N.N.[Cl][Pt][Cl] [Cisplatin, cisplatin, reference compound] | 21.4 ± 0.73 | 8.98 ± 0.07 |  | 

Reference: patent US10358456B2, “Platinum(II) complexes with selone ligands and method of use” (KING FAHD UNIVERSITY OF PETROLEUM AND MINERALS, priority 2017, dated 2019)
